9 compounds from patent US20180360972A1, “THERAPEUTIC COMPOUNDS” (REGENTS OF THE UNIVERSITY OF MINNESOTA, priority 2017, published 2018) can be followed below.

Data set [1] addresses T1, hMC4R (Homo sapiens, UniProt P32245).
T1 construct: Flag; expressed in transfected cells
As to the kind of experiment: cAMP Signaling | EC50 (nM). The method, then:
Table printed on a drawing sheet, Figure 20
The cAMP signaling potency was determined by AlphaScreen™ assays. […] The reported errors are the standard error of the mean (SEM) determined from at least three independent experiments. Changes less than 3-fold were considered to be within the inherent experimental assay error.
Target sequence in this assay (P32245 whole entry, looked up): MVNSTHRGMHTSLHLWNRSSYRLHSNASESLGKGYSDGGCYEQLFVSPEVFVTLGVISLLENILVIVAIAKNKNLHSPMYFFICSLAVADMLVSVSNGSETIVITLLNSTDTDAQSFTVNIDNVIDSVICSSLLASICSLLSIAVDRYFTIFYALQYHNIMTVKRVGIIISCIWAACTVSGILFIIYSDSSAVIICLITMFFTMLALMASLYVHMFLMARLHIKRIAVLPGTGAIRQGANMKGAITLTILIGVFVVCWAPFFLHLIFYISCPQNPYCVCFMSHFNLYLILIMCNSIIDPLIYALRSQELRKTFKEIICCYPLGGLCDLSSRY

Data set [2] addresses T1, hMC4R. Briefly: β-Arrestin Recruitment | EC50 (nM). In general terms: Recruitment of arrestin is a read-out of receptor activation apart from second messengers.
Target sequence in this assay (P32245 whole entry, looked up): as above
For data set [3], the target named is mMC4R-NanoLuc and mMC4R-HaloTag homodimer (Mus musculus, UniProt P56450). Briefly: NanoBRET ligand-dependent modulation of BRET signal. To be noted: for reduction in BRET signal compared to basal signal: ligand at 10 μM; for change in BRET signal (in words): 10^−5, 10^−7 and 10^−9 M vs assay buffer. On the technique in general: BRET reads energy transfer from a luciferase to a nearby fluorophore.
Chain of mMC4R-NanoLuc and mMC4R-HaloTag homodimer (P56450 whole entry): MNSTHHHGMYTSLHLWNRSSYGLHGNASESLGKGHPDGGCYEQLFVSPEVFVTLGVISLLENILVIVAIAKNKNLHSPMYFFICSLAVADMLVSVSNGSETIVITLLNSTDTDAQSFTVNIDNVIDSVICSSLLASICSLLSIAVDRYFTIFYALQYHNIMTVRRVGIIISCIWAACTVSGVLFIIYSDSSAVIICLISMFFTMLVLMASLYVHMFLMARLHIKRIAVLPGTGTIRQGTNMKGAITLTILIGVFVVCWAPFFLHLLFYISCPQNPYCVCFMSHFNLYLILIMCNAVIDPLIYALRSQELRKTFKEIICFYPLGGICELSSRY
Chain of mMC4R-NanoLuc and mMC4R-HaloTag homodimer (P56450 whole entry): as above
Method: On the first day, cells were plated into 6 well plates in the morning. In the afternoon of the same day, cells were transiently transfected with mMC4R-NanoLuc® fusion protein and the MC4R-HaloTag® fusion protein by adding FuGene6 Transfection (8 μL/well, Promega), DNA (2 μg/well) in OptiMem medium (Invitrogen) at a total volume of 100 μL/well. […] Cells were incubated with transfection reagent overnight at 5% CO2 at 37° C.
This provides the background signal and was subtracted from the final experimental signal. Plates were then developed 48 to 60 hours after transfection. Two hours before the plates were developed, 10 μL of a 10× aliquot of the ligand diluted in assay buffer was added to each well to yield the final in well concentration (10^−5, 10^−7, or 10^−9M) of each compound. For the assay buffer control, 10 μL of assay buffer was added instead of compound. […] The standard error of the mean (SEM) was derived from at least three independent experiments.

Data set [4] deals with T1, hMC4R. As to the kind of experiment: AlphaScreen cAMP functional bioassay, hMC4R. In kind it is cell-based. To be noted: HEK293 cells stably expressing hMC4R. The protocol: Upon agonist stimulation, melanocortin receptors are known to signal through a Gαs-protein mediated signaling pathway that results in intracellular cAMP accumulation.
Stable populations were selected for using G418 selection (0.7-1.0 mg/mL) and used in bioassays unless indicated otherwise. In vitro experimental ligands were dissolved to a 10^−2 M stock in DMSO and stored at −20° C. Subsequent dilutions were performed in each assay's specific buffer to achieve the final concentration in the well. The ligands were assayed as TFA salts.
AlphaScreen cAMP Functional Bioassay
The AlphaScreen® assay was performed as described by manufacturer.
Cells were removed from plates using Gibco® Versene solution and pelleted by centrifugation (Sorvall Super T21 high speed centrifuge, swinging bucket rotor) at 800 rpm for five minutes. […] A 10 μL aliquot of cell suspension was counted manually using a hemocytometer after addition of Trypan blue dye (BioRad). Cells were again pelleted by centrifugation, and DPBS was gently aspirated. The pelleted cells were then resuspended in a solution of freshly made stimulation buffer (Hank's Balanced Salt Solution [HBSS 10× [−] sodium bicarbonate] and [−] phenol red, Gibco®], 0.5 mM isobutylmethylxanthine [IBMX], 5 mM HEPES buffer solution [1M, Gibco®], 0.1% bovine serum albumin [BSA] in Milli-Q water, pH=7.4) and anti-cAMP acceptor beads (1.0 unit per well, AlphaScreen®). […] The cells were then stimulated with ligand diluted in stimulation buffer to achieve their final concentrations in the well ranging from 10^−13 to 10^−4 M. The stimulated plates were incubated in a dark laboratory drawer at room temperature for two hours.
Meanwhile, a biotinylated cAMP/streptavidin donor bead working solution was made by adding biotinylated cAMP (1 Unit/well, AlphaScreen®) and streptavidin donor beads (1 Unit/well, AlphaScreen®) to a lysis buffer (10% Tween-20, 5 mM HEPES buffer solution [1M, Gibco®], 0.1% bovine serum albumin [BSA] in Milli-Q water, pH=7.4). After the two hour stimulation, the biotinylated cAMP/Streptavidin donor bead working solution was added to each well under green light and mixed well by pipetting up and down. The cells were incubated for another two hours at room temperature in a dark drawer at room temperature. The plate was then read on an EnSpire™ Alpha plate reader using a pre-normalized assay protocol set by the manufacturer. Assays were performed with duplicate data points on each plate and repeated in at least three independent experiments.
Dose response curves were analyzed using the PRISM program (v4.0; GraphPad Inc.).
Target sequence in this assay (P32245 whole entry): as the sequence (P32245 whole entry, looked up) above
For orientation: Bead proximity is the source of the signal in Alpha formats.

The next data set has as its system wild type mice. Briefly: ICV administration, conventional cages, wild type mice. It counts as in vivo. Conditions: preliminary conventional cage experiments; fasting paradigm. The protocol:
(§1) All experiments were performed in accordance with the Institutional Animal Care and Use Committee (IACUC) at the University of Minnesota. Female and male littermates with mixed background from C57BL/6J and 129/Sv inbred strains were 8 weeks old at the time of surgeries. Mice were individually housed after surgeries and for the remainder of the experiment. Mice were maintained on a 12 hr light/dark cycle (Lights off was at 11:59 AM) in a temperature controlled room (23-25° C.). In the nocturnal feeding paradigm, mice had free access to normal chow (Harlan Teklad 2018 Diet: 18.6% crude protein, 6.2% crude fat, 3.5% crude fiber, with energy density of 3.1 kcal/g). […] Mice had free access to tap water throughout all the experiments. The cannula placement validation studies and conventional cage studies were performed in standard mouse polycarbonate conventional cages provided by University of Minnesota's Research Animal Resources (RAR). Weekly cage changes were conducted by lab research staff.
(§2) Mice were anesthetize with a mixture of ketamine (100 mg/kg) and xylazine (5 mg/kg) and were positioned in a stereotaxic apparatus (David Kopf Instruments). A 26-gauge cannula (Cat# 81C315GS4SPC; PlasticsOne, Roanoke, Va.) was inserted in the lateral cerebral ventricle at the coordinates 1.0 mm lateral and 0.46 mm posterior to bregma and 2.3 mm ventral to the skull (Franklin, K. B. J. & Paxinos, G. The Mouse Brain in Stereotaxic Coordinates. (Academic Press, 1997)).
(§3) Each mouse was administered hPYY and saline on different days following a crossover design in the nocturnal feeding paradigm. In the nocturnal paradigm, compound is administered 2 hours prior to lights out with free access to food and water throughout the entire experiment. There was at least a 4 day washout period between administration to ensure that normal feeding patterns and body weight returned. Food intake and body weight were manually measured 2, 4, and 6 hours after hPYY or saline administration. A mouse with a validated cannula placement for the TSE cage experiments consumed at least 1.0 g more after hPYY administration compared to saline administration 4 hours post-administration.
(§4) As stated above, conventional cage experiments were performed in standard mouse polycarbonate conventional cages. […] All experiments followed a cross-over paradigm in which the mouse received saline and compound on different days with a washout period in between each treatment. Statistical analysis was performed using SPSS V23 software (IBM) using a multivariate general linear model followed by a Bonferroni's post hoc test. Results are presented as Mean±SEM. Statistically significant was considered p<0.05.

The test system of the next data set is male wild type mice. It counts as in vivo. To be noted: nocturnal paradigm; 5.0 or 2.5 nmols CJL-1-124. The method, then: as §1, §2, §3, §4
A further data set relates to male MC3RKO mice. As to the kind of experiment: ICV administration, TSE metabolic cages, male MC3RKO mice. In kind it is in vivo. Conditions: nocturnal paradigm; 2.5 to 5 nmols. The method, then: as §1, §2, §4
In order to more clearly understand the effects of the biased agonism at the MC4R, the effects of administration of CJL-5-58 was explored in MC3R knockout (KO) mice and MC4RKO mice. […] Adverse reactions included two mice dying after the 5 nmol dose. […] The large error in activity may serve as an indication of toxicity. It is currently difficult to decipher whether the adverse reactions observed are due to paradigm effects, genotype difference, or compound toxicity.

A further data set has as its system male MC4RKO mice. Briefly: ICV administration, conventional cages, male MC4RKO mice. It counts as in vivo. To be noted: ICV 2.5 to 5 nmols; conventional cages. The protocol:
as §1, §2, §4
In male MC4RKO mice, CJL-5-58 was administered at 5 nmols in both a nocturnal paradigm and a fasting-refeeding paradigm in standard conventional cages (FIG. 15). The dose was well handled in the nocturnal paradigm, but minimal effect was observed.

Entries after “also recorded” stand apart in the source; their conditions may differ. Square brackets hold non-standard residues; d marks the D form. Peptide text beside a SMILES is read from it.

For orientation: EC50 means the concentration at which the effect is half-maximal. Lower therefore signals a more potent agent. Take `CC(=O)N[C@@H](Cc1c[nH]cn1)C(=O)N[C@H](Cc1ccccc1)C(=O)N[C@@H](CCCNC(=N)N)C(=O)N[C@@H](Cc1c[nH]c2ccccc12)C(=O)N1CCC[C@H]1C(=O)NCC(=O)N1CCC[C@H]1C(=O)NCC(=O)N1CCC[C@H]1C(=O)NCC(=O)N1CCC[C@H]1C(=O)NCC(=O)N1CCC[C@H]1C(=O)NCC(=O)N1CCC[C@H]1C(=O)NCC(N)=O` [CJL5-35-1, Ac-His-DPhe-Arg-Trp-(Pro-Gly)6-NH2] (Ac-H[dF]RWPGPGPGPGPGPG-NH2): the concentration for a half-maximal effect (EC50) is 0.0055 ± 0.0007 µM at hMC4R [1] and 1.6 ± 0.6 µM at hMC4R [2].

With `CC(=O)N[C@@H](Cc1c[nH]cn1)C(=O)N[C@H](Cc1ccccc1)C(=O)N[C@@H](CCCNC(=N)N)C(=O)N[C@@H](Cc1c[nH]c2ccccc12)C(=O)N1CCC[C@H]1C(=O)NCC(=O)N1CCC[C@H]1C(=O)NCC(=O)N1CCC[C@H]1C(=O)NCC(=O)N1CCC[C@H]1C(=O)NCC(=O)N1CCC[C@H]1C(=O)NCC(=O)N1CCC[C@H]1C(=O)NCC(=O)N[C@@H](Cc1c[nH]cn1)C(=O)N[C@H](Cc1ccccc1)C(=O)N[C@@H](CCCNC(=N)N)C(=O)N[C@@H](Cc1c[nH]c2ccccc12)C(N)=O` [CJL-1-31, Ac-His-DPhe-Arg-Trp-(Pro-Gly)6-His-DPhe-Arg-Trp-NH2] (Ac-H[dF]RWPGPGPGPGPGPGH[dF]RW-NH2), the EC50 worked out at 0.00095 ± 8e-05 µM at hMC4R [1] and 1.9 ± 0.6 µM on hMC4R [2].

Take `N=C(N)NCCC[C@H](NC(=O)[C@@H](Cc1ccccc1)NC(=O)[C@H](Cc1c[nH]cn1)NC(=O)CNC(=O)[C@@H]1CCCN1C(=O)CNC(=O)[C@@H]1CCCN1C(=O)CNC(=O)[C@@H]1CCCN1C(=O)CNC(=O)[C@@H]1CCCN1C(=O)CNC(=O)[C@@H]1CCCN1C(=O)CNC(=O)[C@@H]1CCCN1)C(=O)N[C@@H](Cc1c[nH]c2ccccc12)C(N)=O` [CJL-1-41, (Pro-Gly)6-His-DPhe-Arg-Trp-NH2] (H-PGPGPGPGPGPGH[dF]RW-NH2; N-terminus assumed): the values for the concentration for a half-maximal effect (EC50) on hMC4R [1] and on hMC4R [2] were 0.0011 ± 7e-05 µM and 1.5 ± 0.5 µM, respectively.

Regarding `CC(=O)N[C@@H](Cc1c[nH]cn1)C(=O)N[C@H](Cc1ccccc1)C(=O)N[C@@H](CCCNC(=N)N)C(=O)N[C@@H](Cc1c[nH]c2ccccc12)C(=O)NCCCOCCOCCOCCCNC(=O)COCC(=O)N[C@@H](Cc1c[nH]cn1)C(=O)N[C@H](Cc1ccccc1)C(=O)N[C@@H](CCCNC(=N)N)C(=O)N[C@@H](Cc1c[nH]c2ccccc12)C(N)=O` [CJL-1-87], the “reduction in BRET signal compared to basal signal” value (shortened to “reduction in BRET signal”) in data set [3] was approximately 15%.

For the compound `CC(=O)N[C@@H](Cc1cnc[nH]1)C(=O)N[C@H](Cc1ccc2ccccc2c1)C(=O)N[C@@H](CCCNC(=N)N)C(=O)N[C@@H](Cc1c[nH]c2ccccc12)C(=O)NCCCOCCOCCOCCCNC(=O)COCC(=O)N[C@@H](Cc1cnc[nH]1)C(=O)N[C@H](Cc1ccccc1)C(=O)N[C@@H](CCCNC(=N)N)C(=O)N[C@@H](Cc1c[nH]c2ccccc12)C(N)=O` [CJL-1-124, Ac-His-DNal(2′)-Arg-Trp-(PEDG20)-His-DPhe-Arg-Trp-NH2], the “cAMP agonist potency (in words)” value at hMC4R [4] is given as “single digit nanomolar agonists”. For the same compound, the adverse effects result in the data set on wild type mice is reported as “strong adverse effects”. The results for the “adverse reactions / toxicity” value with male wild type mice and in the data set with male MC3RKO mice were “some signs of adverse reactions observed at higher 5 nmol dose; also recorded: Some toxicity was observed” and “some signs of toxicity were observed; also recorded: Some toxicity was observed”, respectively. The toxicity entry in the data set with male MC4RKO mice was “some signs of toxicity were observed; also recorded: Some toxicity was observed”. In addition, the “reduction in BRET signal” value in data set [3] is given as approximately 8%.

On to `CC(=O)N[C@@H](Cc1c[nH]cn1)C(=O)N[C@H](Cc1ccccc1)C(=O)N[C@@H](CCCNC(=N)N)C(=O)N[C@@H](Cc1c[nH]c2ccccc12)C(=O)NCCCOCCOCCOCCCNC(=O)COCC(=O)NCCCOCCOCCOCCCNC(=O)COCC(=O)N[C@@H](Cc1c[nH]cn1)C(=O)N[C@H](Cc1ccccc1)C(=O)N[C@@H](CCCNC(=N)N)C(=O)N[C@@H](Cc1c[nH]c2ccccc12)C(N)=O` [CJL-5-72, Ac-His-DPhe-Arg-Trp-(PEDG20)-(PEDG20)-His-DPhe- Arg-Trp-NH2], for which the concentration giving a half-maximal response (EC50) is 0.0012 ± 0.0003 µM at hMC4R [1] and 0.28 ± 0.04 µM on hMC4R [2].

As for “Ac-His-DNal(2′)-Arg-Trp-(PEDG20)-(PEDG20)-His-DPhe-Arg-Trp-NH2 [CJL-5-74, MUmBL; linker assigned from order of b161-b164 and b248]”, at hMC4R [4], the “cAMP agonist potency (in words)” value was “single digit nanomolar agonists”.

Take Ac-His-DPhe-Arg-Trp-NH2 [CJL-1-14]: in data set [3], the “change in BRET signal (in words)” value was “dose dependent decrease in BRET signal” and the “reduction in BRET signal” value is listed as 15%.

As to α-MSH, in data set [3], the “change in BRET signal (in words)” value is reported as “dose dependent decrease in BRET signal” and the “reduction in BRET signal” value is 15%.
